Measurements taken from ChEMBL document CHEMBL4346705, “(±)-trans-Dihydronarciclasine and (±)-trans-dihydrolycoricidine analogues modified in their ring A: Evaluation of their anticancer activity and a SAR study” (2019).

Experiments:
Assay type in all cases: functional
[1] = system: CCRF-CEM; experiment: Antiproliferative activity against human CCRF-CEM cells assessed as cell viability at 10^-5 M incubated for 48 hrs by sulforhodamine B assay relative to control; conditions: read-out: Activity
[2] = system: HL-60(TB); experiment: Antiproliferative activity against human HL-60(TB) cells assessed as cell viability at 10^-5 M incubated for 48 hrs by sulforhodamine B assay relative to control; conditions: HL-60, 48 h, read-out: Activity
[3] = system: K562; experiment: Antiproliferative activity against human K562 cells assessed as cell viability at 10^-5 M incubated for 48 hrs by sulforhodamine B assay relative to control; conditions: K562, 48 h, read-out: Activity
[4] = system: MOLT-4; experiment: Antiproliferative activity against human MOLT4 cells assessed as cell viability at 10^-5 M incubated for 48 hrs by sulforhodamine B assay relative to control; conditions: MOLT-4, 48 h, read-out: Activity
[5] = system: SR; experiment: Antiproliferative activity against human SR cells assessed as cell viability at 10^-5 M incubated for 48 hrs by sulforhodamine B assay relative to control; conditions: read-out: Activity
[6] = system: HOP-62; experiment: Antiproliferative activity against human HOP62 cells assessed as cell viability at 10^-5 M incubated for 48 hrs by sulforhodamine B assay relative to control; conditions: HOP-62, 48 h, read-out: Activity
[7] = system: NCI-H322M; experiment: Antiproliferative activity against human NCI-H322M cells assessed as cell viability at 10^-5 M incubated for 48 hrs by sulforhodamine B assay relative to control; conditions: read-out: Activity
[8] = system: NCI-H460; experiment: Antiproliferative activity against human NCI-H460 cells assessed as cell viability at 10^-5 M incubated for 48 hrs by sulforhodamine B assay relative to control; conditions: NCI-H460, 48 h, read-out: Activity
[9] = system: HCT-116; experiment: Antiproliferative activity against human HCT116 cells assessed as cell viability at 10^-5 M incubated for 48 hrs by sulforhodamine B assay relative to control; conditions: HCT-116, 48 h, read-out: Activity
[10] = system: HCT-15; experiment: Antiproliferative activity against human HCT15 cells assessed as cell viability at 10^-5 M incubated for 48 hrs by sulforhodamine B assay relative to control; conditions: HCT-15, 48 h, read-out: Activity
[11] = system: HT-29; experiment: Antiproliferative activity against human HT-29 cells assessed as cell viability at 10^-5 M incubated for 48 hrs by sulforhodamine B assay relative to control; conditions: HT-29, 48 h, read-out: Activity
[12] = system: KM12; experiment: Antiproliferative activity against human KM12 cells assessed as cell viability at 10^-5 M incubated for 48 hrs by sulforhodamine B assay relative to control; conditions: KM12, 48 h, read-out: Activity
[13] = system: SF-268; experiment: Antiproliferative activity against human SF268 cells assessed as cell viability at 10^-5 M incubated for 48 hrs by sulforhodamine B assay relative to control; conditions: SF-268, 48 h, read-out: Activity
[14] = system: SNB-19; experiment: Antiproliferative activity against human SNB19 cells assessed as cell viability at 10^-5 M incubated for 48 hrs by sulforhodamine B assay relative to control; conditions: SNB-19, 48 h, read-out: Activity
[15] = system: SNB-75; experiment: Antiproliferative activity against human SNB75 cells assessed as cell viability at 10^-5 M incubated for 48 hrs by sulforhodamine B assay relative to control; conditions: SNB-75, 48 h, read-out: Activity
[16] = system: U-251; experiment: Antiproliferative activity against human U251 cells assessed as cell viability at 10^-5 M incubated for 48 hrs by sulforhodamine B assay relative to control; conditions: U-251, 48 h, read-out: Activity
[17] = system: LOX IMVI; experiment: Antiproliferative activity against human LOXIMVI cells assessed as cell viability at 10^-5 M incubated for 48 hrs by sulforhodamine B assay relative to control; conditions: read-out: Activity
[18] = system: Malme-3M; experiment: Antiproliferative activity against human MALME-3M cells assessed as cell viability at 10^-5 M incubated for 48 hrs by sulforhodamine B assay relative to control; conditions: read-out: Activity
[19] = system: SK-MEL-5; experiment: Antiproliferative activity against human SK-MEL-5 cells assessed as cell viability at 10^-5 M incubated for 48 hrs by sulforhodamine B assay relative to control; conditions: SK-MEL-5, 48 h, read-out: Activity
[20] = system: UACC-62; experiment: Antiproliferative activity against human UACC62 cells assessed as cell viability at 10^-5 M incubated for 48 hrs by sulforhodamine B assay relative to control; conditions: UACC-62, 48 h, read-out: Activity
[21] = system: IGROV-1; experiment: Antiproliferative activity against human IGROV1 cells assessed as cell viability at 10^-5 M incubated for 48 hrs by sulforhodamine B assay relative to control; conditions: IGROV-1, 48 h, read-out: Activity
[22] = system: OVCAR-8; experiment: Antiproliferative activity against human OVCAR8 cells assessed as cell viability at 10^-5 M incubated for 48 hrs by sulforhodamine B assay relative to control; conditions: OVCAR-8, 48 h, read-out: Activity
[23] = system: 786-0; experiment: Antiproliferative activity against human 786-0 cells assessed as cell viability at 10^-5 M incubated for 48 hrs by sulforhodamine B assay relative to control; conditions: 786-0, 48 h, read-out: Activity
[24] = system: A498; experiment: Antiproliferative activity against human A498 cells assessed as cell viability at 10^-5 M incubated for 48 hrs by sulforhodamine B assay relative to control; conditions: A498, 48 h, read-out: Activity
[25] = system: ACHN; experiment: Antiproliferative activity against human ACHN cells assessed as cell viability at 10^-5 M incubated for 48 hrs by sulforhodamine B assay relative to control; conditions: read-out: Activity
[26] = system: RXF 393; experiment: Antiproliferative activity against human RXF393 cells assessed as cell viability at 10^-5 M incubated for 48 hrs by sulforhodamine B assay relative to control; conditions: RXF 393, 48 h, read-out: Activity
[27] = system: SN12C; experiment: Antiproliferative activity against human SN12C cells assessed as cell viability at 10^-5 M incubated for 48 hrs by sulforhodamine B assay relative to control; conditions: read-out: Activity
[28] = system: TK-10; experiment: Antiproliferative activity against human TK10 cells assessed as cell viability at 10^-5 M incubated for 48 hrs by sulforhodamine B assay relative to control; conditions: TK-10, 48 h, read-out: Activity
[29] = system: PC-3; experiment: Antiproliferative activity against human PC3 cells assessed as cell viability at 10^-5 M incubated for 48 hrs by sulforhodamine B assay relative to control; conditions: PC-3, 48 h, read-out: Activity
[30] = system: MDA-MB-231; experiment: Antiproliferative activity against human MDA-MB-231 cells assessed as cell viability at 10^-5 M incubated for 48 hrs by sulforhodamine B assay relative to control; conditions: MDA-MB-231, 48 h, read-out: Activity
[31] = system: Hs-578T; experiment: Antiproliferative activity against human Hs 578T cells assessed as cell viability at 10^-5 M incubated for 48 hrs by sulforhodamine B assay relative to control; conditions: read-out: Activity
[32] = system: MDA-MB-468; experiment: Antiproliferative activity against human MDA-MB-468 cells assessed as cell viability at 10^-5 M incubated for 48 hrs by sulforhodamine B assay relative to control; conditions: MDA-MB-468, 48 h, read-out: Activity

| Compound | viability at 10 µM [1] [%] | viability at 10 µM [2] [%] | viability at 10 µM [3] [%] | viability at 10 µM [4] [%] | viability at 10 µM [5] [%] | viability at 10 µM [6] [%] | viability at 10 µM [7] [%] | viability at 10 µM [8] [%] | viability at 10 µM [9] [%] | viability at 10 µM [10] [%] | viability at 10 µM [11] [%] | viability at 10 µM [12] [%] | viability at 10 µM [13] [%] | viability at 10 µM [14] [%] | viability at 10 µM [15] [%] | viability at 10 µM [16] [%] | viability at 10 µM [17] [%] | viability at 10 µM [18] [%] | viability at 10 µM [19] [%] | viability at 10 µM [20] [%] | further results |
| --- | --- | --- | --- | --- | --- | --- | --- | --- | --- | --- | --- | --- | --- | --- | --- | --- | --- | --- | --- | --- | --- |
| CCOc1cc2c(cc1OCC)C1CC(O)C(O)C(O)C1NC2=O (racemic) | 102 | 94.5 | 88.4 | 96.5 | 91.2 | 99.2 | 95.2 | 111 | 96.3 | 101 | 106 | 104 | 97.9 | 105 | 98.9 | 106 | 92.8 | 102 | 99.6 | 96.1 | viability at 10 µM [21]: 107%; viability at 10 µM [22]: 97.9%; viability at 10 µM [23]: 98.9%; viability at 10 µM [24]: 111%; viability at 10 µM [25]: 101%; viability at 10 µM [26]: 105%; viability at 10 µM [27]: 100%; viability at 10 µM [28]: 118%; viability at 10 µM [29]: 92.8%; viability at 10 µM [30]: 103%; viability at 10 µM [31]: 99.6%; viability at 10 µM [32]: 94.2% |
| COc1c2c(cc3c1C(=O)NC1C3CC(O)C(O)C1O)OCCO2 (racemic) | 105 | 95.4 | 95.6 | 99.6 | 92.1 | 99.9 | 93.5 | 109 | 102 | 102 | 106 | 99.1 | 97.9 | 102 | 99.3 | 100 | 101 | 106 | 99 | 96.7 | viability at 10 µM [21]: 109%; viability at 10 µM [22]: 100%; viability at 10 µM [23]: 97.4%; viability at 10 µM [24]: 104%; viability at 10 µM [25]: 103%; viability at 10 µM [26]: 102%; viability at 10 µM [27]: 103%; viability at 10 µM [28]: 95.7%; viability at 10 µM [29]: 97.7%; viability at 10 µM [30]: 109%; viability at 10 µM [31]: 96.2%; viability at 10 µM [32]: 93.1% |
| CCOc1cc2c(c(O)c1OCC)C(=O)NC1C2CC(O)C(O)C1O (racemic) | 103 | 102 | 93.8 | 103 | 91.7 | 101 | 97.6 | 113 | 104 | 99 | 99.7 | 106 | 96.4 | 96 | 93.4 | 98.4 | 98.5 | 102 | 102 | 93 | viability at 10 µM [21]: 109%; viability at 10 µM [22]: 97%; viability at 10 µM [23]: 94.1%; viability at 10 µM [24]: 98.7%; viability at 10 µM [25]: 106%; viability at 10 µM [26]: 104%; viability at 10 µM [27]: 103%; viability at 10 µM [28]: 99.1%; viability at 10 µM [29]: 100%; viability at 10 µM [30]: 103%; viability at 10 µM [31]: 89.9%; viability at 10 µM [32]: 94.8% |
| CCOc1cc2c(c(OCC)c1OCC)C(=O)NC1C2CC(O)C(O)C1O (racemic) | 99.1 | 96.1 | 98.4 | 99.2 | 96.2 | 102 | 97.8 | 109 | 101 | 104 | 104 | 103 | 99.5 | 104 | 93 | 101 | 98.7 | 112 | 107 | 101 | viability at 10 µM [21]: 108%; viability at 10 µM [22]: 102%; viability at 10 µM [23]: 97.9%; viability at 10 µM [24]: 102%; viability at 10 µM [25]: 105%; viability at 10 µM [26]: 110%; viability at 10 µM [27]: 108%; viability at 10 µM [28]: 98.5%; viability at 10 µM [29]: 89.4%; viability at 10 µM [30]: 121%; viability at 10 µM [31]: 99.1%; viability at 10 µM [32]: 107% |
| CCOc1c(OC)cc2c(c1O)C(=O)NC1C2CC(O)C(O)C1O (racemic) | 103 | 100 | 91.2 | 92.4 | 89.2 | 98.6 | 103 | 112 | 104 | 102 | 100 | 104 | 102 | 99 | 93.5 | 96.7 | 98.1 | 102 | 101 | 93.1 | viability at 10 µM [21]: 102%; viability at 10 µM [22]: 101%; viability at 10 µM [23]: 102%; viability at 10 µM [24]: 99.5%; viability at 10 µM [25]: 103%; viability at 10 µM [26]: 109%; viability at 10 µM [27]: 104%; viability at 10 µM [28]: 93.9%; viability at 10 µM [29]: 100%; viability at 10 µM [30]: 106%; viability at 10 µM [31]: 100%; viability at 10 µM [32]: 94.9% |
